Source: BindingDB's records for patent US12215173 (Humanwell Pharmaceutical US, 2025)
Square brackets hold non-standard residues; d marks the D form. Peptide text beside a SMILES is read from it. * marks the point of attachment. Pyrrolidino(3-NH2-3-COOH) = NC1(C(=O)O)CCN(*)C1; dTic = O=C(O)[C@H]1Cc2ccccc2CN1

Experiments:
Assay in all cases: Opioid Receptor Binding Assay
[1] = target: Delta-type opioid receptor (Homo sapiens, UniProt P41143)
Method: (§1) The assay buffers used for opioid receptor binding studies were 50 mM Tris HCl (pH 7.4) for KOR, 50 mM Tris HCl (pH 7.4) with 5 mM MgCl2 for MOR, and 50 mM Tris HCl (pH 7.4) with 10 mM MgCl2 plus 1 mM EDTA for DOR. Wash buffer contained 50 mM Tris HCl at pH 7.4. […] DADLE, which were used as the competing radioligands for mu, kappa and delta receptors, respectively.

[2] = target: Kappa-type opioid receptor (Homo sapiens, UniProt P41145)
Method: as §1

[3] = target: Mu-type opioid receptor (Homo sapiens, UniProt P35372)
Mu-type opioid receptor, sequence (P35372 whole entry): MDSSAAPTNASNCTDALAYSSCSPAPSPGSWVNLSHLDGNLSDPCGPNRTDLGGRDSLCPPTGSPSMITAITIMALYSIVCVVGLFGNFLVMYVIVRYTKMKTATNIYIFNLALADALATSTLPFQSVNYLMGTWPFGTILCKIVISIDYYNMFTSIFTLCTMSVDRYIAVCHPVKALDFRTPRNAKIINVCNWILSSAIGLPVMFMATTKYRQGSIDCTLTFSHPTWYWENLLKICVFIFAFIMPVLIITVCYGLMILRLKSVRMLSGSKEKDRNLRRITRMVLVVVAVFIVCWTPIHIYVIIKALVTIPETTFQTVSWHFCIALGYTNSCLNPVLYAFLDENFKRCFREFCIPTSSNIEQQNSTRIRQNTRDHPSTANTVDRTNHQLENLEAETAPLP
Method: as §1

Delta-type opioid receptor, sequence (P41143 whole entry): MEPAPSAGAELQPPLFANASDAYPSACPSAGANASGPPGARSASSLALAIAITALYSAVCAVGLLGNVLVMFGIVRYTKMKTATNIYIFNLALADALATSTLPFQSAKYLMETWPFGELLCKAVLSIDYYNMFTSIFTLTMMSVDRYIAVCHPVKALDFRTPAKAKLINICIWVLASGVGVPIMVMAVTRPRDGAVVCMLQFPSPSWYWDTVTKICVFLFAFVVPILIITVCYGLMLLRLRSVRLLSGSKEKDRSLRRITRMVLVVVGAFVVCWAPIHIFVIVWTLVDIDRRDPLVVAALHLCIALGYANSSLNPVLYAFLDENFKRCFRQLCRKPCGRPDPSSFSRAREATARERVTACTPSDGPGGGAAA
Kappa-type opioid receptor, sequence (P41145 whole entry): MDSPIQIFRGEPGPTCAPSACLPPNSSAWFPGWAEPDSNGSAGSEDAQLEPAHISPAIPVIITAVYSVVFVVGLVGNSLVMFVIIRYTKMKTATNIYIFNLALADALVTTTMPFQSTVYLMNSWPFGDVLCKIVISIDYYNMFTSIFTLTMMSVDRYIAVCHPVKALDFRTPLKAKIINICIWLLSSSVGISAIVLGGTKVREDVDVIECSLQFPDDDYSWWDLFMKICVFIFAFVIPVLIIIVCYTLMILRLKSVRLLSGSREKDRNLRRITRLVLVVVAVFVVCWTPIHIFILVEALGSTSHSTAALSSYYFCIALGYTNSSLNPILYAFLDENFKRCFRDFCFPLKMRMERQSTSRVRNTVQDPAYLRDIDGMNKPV

Structure (SMILES) | IC50 [1] [µM] | IC50 [2] [µM] | IC50 [3] [µM]
COC(=O)C1(N)CCN(C(=O)[C@@H](CCCCN)NC(=O)[C@@H](CC(C)C)NC(=O)[C@@H](Cc2ccccc2)NC(=O)[C@H]2Cc3ccccc3CN2)CC1 [US12215173, Compound 171] | > 10 | 0.00083 | > 10
CC(C)C[C@@H](NC(=O)[C@@H](Cc1ccccc1)NC(=O)[C@H](N)Cc1ccccc1)C(=O)N[C@H](CCCCN)C(=O)NCCC[C@H](N)C(=O)O [US12215173, Compound 13-44] | > 10 | 0.00046 | > 10
COC(=O)C1(N)CCN(C(=O)[C@@H](CCCCN)NC(=O)[C@@H](CC(C)C)NC(=O)[C@@H](Cc2ccccc2)NC(=O)[C@H](N)Cc2ccc(F)cc2)C1 (stereo partly specified) [US12215173, Compound 181] | > 10 | 0.0004 | > 10
CC(C)C[C@@H](NC(=O)[C@@H](Cc1ccccc1)NC(=O)[C@H]1Cc2ccccc2CN1)C(=O)N[C@H](CCCCN)C(=O)N1CCC(N)(C(=O)O)CC1 [US12215173, Compound 172] | > 10 | 0.00402 | > 10
CC(C)C[C@@H](NC(=O)[C@@H](Cc1ccccc1)NC(=O)[C@H]1Cc2ccccc2CN1)C(=O)N[C@H](CCCCN)C(=O)N1CCC(N)(C(=O)O)C1 (stereo partly drawn) [US12215173, Compound 169] (H-[dTic][dF][dL][dK]-{Pyrrolidino(3-NH2-3-COOH)}) | – | 0.0888 | –
COC(=O)C1(N)CCN(C(=O)[C@@H](CCCCN)NC(=O)[C@H](NC(=O)[C@@H](Cc2ccccc2)NC(=O)[C@H](N)Cc2ccccc2)C(C)(C)C)C1 (stereo partly specified) [US12215173, Compound 103] | > 10 | 0.0144 | > 10
CC(C)C[C@@H](NC(=O)[C@@H](Cc1ccccc1)NC(=O)[C@H](N)Cc1ccccc1)C(=O)N[C@H](CCCCN)C(=O)N1CCC(O)(CO)CC1 [US12215173, Compound 13-65] | > 10 | 0.00045 | > 10
COC(=O)C1(N)CCN(C(=O)[C@@H](CCCCN)NC(=O)[C@H](NC(=O)[C@@H](Cc2ccccc2)NC(=O)[C@H](N)Cc2ccccc2)C(C)(C)C)CC1 [US12215173, Compound 100] | > 10 | 0.013 | > 10
COC(=O)C1(N)CCN(C(=O)[C@@H](CCCCN)NC(=O)[C@@H](CC(C)C)NC(=O)[C@@H](Cc2ccccc2)NC(=O)[C@H](N)Cc2ccc(F)cc2)CC1 [US12215173, Compound 184] | > 10 | 0.00025 | 8.09
COC(=O)C1(N)CCN(C(=O)[C@@H](CCCCN)NC(=O)[C@@H](CC(C)C)NC(=O)[C@@H](Cc2ccccc2)NC(=O)[C@H](N)Cc2ccc(C(F)(F)F)cc2)C1 (stereo partly specified) [US12215173, Compound 194] | > 10 | 0.00407 | 7.34
CC(C)C[C@@H](NC(=O)[C@@H](Cc1ccccc1)NC(=O)[C@H](N)Cc1ccccc1)C(=O)N[C@H](CCCCN)C(=O)NCc1cccc(C(=O)O)n1 [US12215173, Compound 13-6] | > 10 | 0.00945 | > 10
